Data from patent US20120202296A1, “SYSTEM, METHOD, AND APPARATUS FOR MEASURING AFFINITY CONSTANTS” (The Trustees of Columbia University in the City of New York, priority 2011, published 2012).

Experiments:
[1] = tested on: ds biotinylated-DNA (90 bp) containing an EcoR1 recognition sequence; experiment: Time-resolved second harmonic (SH) signal on adding EcoR1 to DNA-coated microparticles; format: binding; details: PSC-DNA microparticles
Excerpt: A particular example of how to use the above quantification method and system was experimentally validated as follows. An experimental apparatus was used to measure a time-resolved SH signal that was similar to that described in Yan E C Y, Liu Y, Eisenthal K B (1998) “New method for determination of surface potential of microscopic particles by second harmonic generation.” J Phys Chem B 102:6331-6336 which is hereby incorporated by reference in its entirety. A Princeton Instruments CCD camera was used to acquire light samples. The fundamental laser frequency was centered at 810 nm with approximately 400 mW of average power and a pulse width of approximately 75 femtoseconds (10^−15 sec.; fs). […] Polystyrene carboxylate (PSC) microparticle-DNA bioconjugate particles were prepared in an analogous way to previous synthetic reports.
FIG. 1A is a figurative illustration of the resulting particles 6. A biotin binding protein 18, NeutrAvidin (NA), is linked to the PSC surface (diameter ¼ 1.0 μm, Invitrogen). A PSC-NA solution with a concentration of 5.6×10^9 particles/mL, was suspended in water at pH ¼ 7.5. To this solution ds biotinylated-DNA 12 (90 bp, Integrated DNA Technologies) containing an EcoR1 recognition sequence 8, which is 15 bp from the end attached to the microparticle, was added to a DNA concentration of 0.69 nM and incubated at 55° C. for 1 h. […]

[2] = tested on: control DNA (6-bp EcoR1 recognition sequence altered); experiment: Time-resolved SH signal control experiment with DNA whose recognition sequence is altered; format: binding; details: control DNA without EcoR1 recognition sequence

EcoR1: restriction enzyme that binds its DNA recognition sequence, bends and cleaves the DNA
jump of the SH signal when EcoR1 is added ([1]; 2 mM NaCl): 9.5% | jump of the SH signal when EcoR1 is added ([1]; NaCl concentration 8.50 mM, NaCl in place of Mg2+): 30% | jump in the SH signal when EcoR1 is added [2]: did not show any jump in the SH signal
